Columns and labels:
[1] = molecular target: SARS-CoV-2 nsp14/nsp10 complex (Severe acute respiratory syndrome coronavirus 2, UniProt P0DTD1); experiment: ITC binding to full-length nsp14/nsp10 complex
[2] = molecular target: TEL-MTase fusion (nsp14 N7-MTase-TELSAM) (Severe acute respiratory syndrome coronavirus 2, UniProt P0DTD1); experiment: ITC binding to TEL-MTase fusion; parameters: species or system SARS-CoV-2
[3] = molecular target: SARS-CoV-2 MTase domain (residues 289–527) (Severe acute respiratory syndrome coronavirus 2, UniProt P0DTD1); experiment: ITC binding to isolated MTase domain

Nc1ncnc2c1ncn2[C@@H]1O[C@H](CSCC[C@H](N)C(=O)O)[C@@H](O)[C@H]1O [SAH, S-adenosylhomocysteine] showed a Kd [1] of 0.3 µM and a Kd [2] of 5 µM.

C[S+](CC[C@H](N)C(=O)[O-])C[C@H]1O[C@@H](n2cnc3c(N)ncnc32)[C@H](O)[C@@H]1O (stereo partly shown) [SAM, S-adenosylmethionine] gave a Kd [1] of 5.7 µM and a Kd [3] of 22 to 25 µM.

Source: paper PMC10388636 (Nature structural & molecular biology, 2022)
